{"source": "patent US20260014125A1", "about": "“BICYCLIC-TYPE MAT2A INHIBITOR AND USE THEREOF” (HAIHE BIOPHARMA CO., LTD., priority 2022, published 2026)", "key": {"[1]": {"target": "MAT2A (Homo sapiens (Human), UniProt P31153)", "sequence (P31153 whole entry)": "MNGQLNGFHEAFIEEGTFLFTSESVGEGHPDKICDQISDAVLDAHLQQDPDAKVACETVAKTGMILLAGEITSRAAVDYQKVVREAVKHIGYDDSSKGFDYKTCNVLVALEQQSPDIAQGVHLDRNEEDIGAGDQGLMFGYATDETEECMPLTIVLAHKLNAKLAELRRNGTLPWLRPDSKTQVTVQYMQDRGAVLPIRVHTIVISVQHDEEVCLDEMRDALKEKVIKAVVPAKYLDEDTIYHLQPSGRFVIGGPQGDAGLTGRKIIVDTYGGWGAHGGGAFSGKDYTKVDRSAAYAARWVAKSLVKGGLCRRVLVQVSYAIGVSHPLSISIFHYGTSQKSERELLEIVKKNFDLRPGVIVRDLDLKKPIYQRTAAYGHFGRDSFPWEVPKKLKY", "assay": "Biochemical test: inhibition of MAT2A enzyme activity (phosphate detection, OD620)", "settings": "MAT2A his-tag; 150 minutes enzymatic reaction", "method_in_brief": "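His-tagged human MAT2A was preincubated 15 min with compound (10 µM top, 3-fold, 10 points, duplicate), then reacted with ATP and L-methionine for 150 min. Released phosphate was measured at OD620 after Biomol stop reagent. IC50 was fitted from inhibition relative to no-enzyme and DMSO controls.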"}, "[2]": {"system": "KP-4 cells", "assay": "Human pancreatic cancer KP-4 cell activity inhibition test (CellTiter-Glo)", "format": "cell-based", "settings": "Homo sapiens, 120 h, 5 days", "method_in_brief": "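KP-4 cells (500/well, IMDM with 10% FBS) were plated overnight, then exposed to ten compound concentrations down to 0.5 nM for 5 days at 37 °C and 5% CO2. Viability was read by CellTiter-Glo ATP content. Inhibition was normalised to no-compound and cell-free wells, and IC50 was obtained by curve fitting.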"}, "[3]": {"system": "human B-cell lymphoma DOHH-2 cell subcutaneous xenograft tumor", "assay": "In vivo anti-tumor efficacy in the DOHH-2 cell subcutaneous xenograft tumor model", "design": "species or system mice", "settings": "DOHH-2 xenograft; for T/C (%) / TGI (%): BID, intragastric, female CB-17 SCID mice", "experimental": "The in vivo anti-tumor efficacy of compound 13 and AG-270 (MAT2A inhibitor,\nwere evaluated using a human B-cell lymphoma DOHH-2 cell subcutaneous xenograft tumor model.\nThe female CB-17 SCID mice used were purchased from Beijing Vital River Laboratory Animal Technology Co., Ltd. Tumor cell culture and subcutaneous inoculation: Human B-cell lymphoma DOHH-2 cells (DSMZ) were cultured in vitro in RPMI-1640 medium containing 10% fetal bovine serum and 1% […], and incubated in a 5% CO2 incubator at 37° C. When the required number of cells was reached, the cells were collected, and counted. 0.2 mL (10×10^6) of DOHH-2 cells (with matrix gel added, volume ratio of 1:1) were subcutaneously inoculated into the right back of each mouse. When the average tumor volume reached 100-150 mm^3, random grouping would begin, with 5 mice in each group. The administration group (compound 13 or compound AG-270) was performed intragastric administration twice a day (dosage shown in Table 3), while the negative control group was performed intragastric administration using the same volume of blank solvent per day.\nThe experimental indicator was to examine whether tumor growth was inhibited, delayed, or cured. The tumor diameter was measured twice a week using a vernier caliper. The formula for calculating tumor volume was: V=0.5a×b^2, wherein a and b indicated the long and short diameters of tumors, respectively.\nThe anti-tumor efficacy of the compound was evaluated using TGI (%) or relative tumor proliferation rate T/C (%).\nTGI (%) reflects the tumor growth inhibition rate. Calculation of TGI (%). TGI (%)=[(1−(average tumor volume at the end of administration in the treatment group-average tumor volume at the beginning of administration in the treatment group))/(average tumor volume at the end of treatment in the negative control group-average tumor volume at the beginning of treatment in the negative control group)]×100%.\nRelative tumor proliferation rate TIC (%): The calculation formula was as follows: T/C %=TRTV/CRTV×100% (TRTV: administration group RTV: CRTV: negative control group RTV). The calculation formula of the relative tumor volume (RTV) was RTV=Vt/V0, wherein V0 was the average tumor volume measured at the time of group administration (i.e. d0), Vt was the average tumor volume measured at a certain measurement, and TRTV and CRTV took the same day's data."}}}
{"smiles": "CCOc1c(-c2ccc(Cl)cc2)c(=O)n(-c2ccc3nn(C)cc3c2)c2[nH]ncc12", "note": "[Compound 13]", "values": [{"measurement": "IC50", "setting": "[1]", "result": 0.0151, "unit": "µM"}, {"measurement": "IC50", "setting": "[2]", "result": 0.0074, "unit": "µM"}, {"measurement": "T/C (%)", "setting": "[3]; 5 mg/kg", "result": 35.54, "unit": "%"}, {"measurement": "TGI (%)", "setting": "[3]; 5 mg/kg", "result": 68.82, "unit": "%"}, {"measurement": "T/C (%)", "setting": "[3]; 10 mg/kg", "result": 26.46, "unit": "%"}, {"measurement": "TGI (%)", "setting": "[3]; 10 mg/kg", "result": 78.48, "unit": "%"}, {"measurement": "T/C (%)", "setting": "[3]; 20 mg/kg", "result": 15.98, "unit": "%"}, {"measurement": "TGI (%)", "setting": "[3]; 20 mg/kg", "result": 89.67, "unit": "%"}, {"measurement": "in vivo efficacy, in words", "setting": "[3]; 5, 10, 20 mg/kg BID", "result": "dose-dependent in vivo efficacy"}]}
